Results reported in ChEMBL document CHEMBL5338790, “Discovery of Subcellular-Targeted Aza-BODIPY Photosensitizers for Efficient Photodynamic Antitumor Therapy” (J Med Chem, 2023).
Active and inactive are the calls of the source. The rule behind the calls is not given here.

What was measured:
[1] = Toxicity in Balb/C nu/nu mouse xenografted with human HeLa cells assessed as change in lung histology at 2.5 umol/kg, iv with photo-irradiation at 30 J/cm2 after 1 hr of compound administration measured after 24 days by H and E staining based analysis; format: organism-based; conditions: in vivo, 576 h, dose 2.5 µmol/kg, time 24 day
[2] = Drug distribution in spleen of Balb/C nu/nu mouse xenografted with human HeLa cells at 2.5 umol/kg, iv measured for 24 hr by IVIS imaging analysis; format: ADME, organism-based; conditions: in vivo, dose 2.5 µmol/kg
HeLa = assay: Disruption of lysosomes in human HeLa cells at 50 to 100 nM incubated for 3 hrs with photo-irradiation at 16 J/cm2 by AO staining based confocal scanning microscopy; format: functional, cell-based; conditions: dose 50-100 nM

- Drug uptake [2]: Not Active
SMILES: COc1ccc2c(c1)CCc1c(-c3ccccc3)c3n(c1-2)[B-](F)(F)[N+]1=C(c2ccc(OCC(=O)NCCCN4CCOCC4)cc2)C(I)=C(c2ccccc2)C1=N3
- Activity [1]: Non-Toxic
- Activity (HeLa): Active
